Read-outs that look alike come from different tables or passages of the source.
Test system: iTreg-mediated immunosuppression of CD8+ T-cell activation
Assay type: cell-based, human
Settings: for Fold Change % IFNγ+ CD8+ Relative to No Compound Condition: 2 nM final concentration

SMILES: CN1CCCC1c1cccnc1 (stereo not shown) [nicotine]
- Fold Change % IFNγ+ CD8+ Relative to No Compound Condition (donor BX23981, CD4+ T-cell:CD8+ T-cell ratio 1:2): 1.20 ± 0.038
- Fold Change % IFNγ+ CD8+ Relative to No Compound Condition (donor BX23981, CD4+ T-cell:CD8+ T-cell ratio 2:1): 0.88 ± 0.035
- Fold Change % IFNγ+ CD8+ Relative to No Compound Condition (donor BX24250, CD4+ T-cell:CD8+ T-cell ratio 1:2): 0.84 ± 0.10
- Fold Change % IFNγ+ CD8+ Relative to No Compound Condition (donor BX24250, CD4+ T-cell:CD8+ T-cell ratio 2:1): 1.07 ± 0.046
- Fold Change % IFNγ+ CD8+ Relative to No Compound Condition (donor BX26425, CD4+ T-cell:CD8+ T-cell ratio 1:1): 0.31 ± 0.089
- Fold Change % IFNγ+ CD8+ Relative to No Compound Condition (donor BX26425, CD4+ T-cell:CD8+ T-cell ratio 1:2): 0.42 ± 0.044
- Fold Change % IFNγ+ CD8+ Relative to No Compound Condition (donor BX26425, CD4+ T-cell:CD8+ T-cell ratio 2:1): 0.18 ± 0.11
- Fold Change % IFNγ+ CD8+ Relative to No Compound Condition (donor BX26825, CD4+ T-cell:CD8+ T-cell ratio 1:1): 0.70 ± 0.10
- Fold Change % IFNγ+ CD8+ Relative to No Compound Condition (donor BX26825, CD4+ T-cell:CD8+ T-cell ratio 1:2): 0.91 ± 0.14
- Fold Change % IFNγ+ CD8+ Relative to No Compound Condition (donor BX27275, CD4+ T-cell:CD8+ T-cell ratio 1:1): 1.16 ± 0.12
- Fold Change % IFNγ+ CD8+ Relative to No Compound Condition (donor BX27275, CD4+ T-cell:CD8+ T-cell ratio 2:1): 1.38 ± 0.41
- Fold Change % IFNγ+ CD8+ Relative to No Compound Condition (donor BX27275, CD4+ T-cell:CD8+ T-cell ratio 2:1 (first line)): 0.9 ± 0.12
- IFNγ+CD8+ T-cells in co-culture (final concentration of 2 nM, added at beginning of iTreg/CD8+ co-culture, read three days after co-culture): trend of decreasing IFNγ+CD8+ T-cells

— patent US20200360364A1, “METHODS AND COMPOSITIONS FOR TREATING INFLAMMATORY OR AUTOIMMUNE DISEASES OR CONDITIONS USING CHRNA6 ACTIVATORS” (Flagship Pioneering Innovations V, Inc., priority 2018, published 2020)
